Reference: patent publication US20120065126A1, “Pharmaceutical Compositions Containing Antifungal Peptides” (BASF SE, priority 2009, published 2012)

Assays:
[1] = system: Trichophyton rubrum (DSM21146); experiment: Short-term effect (CFU); format: cell-based
Experimental: (§1) For this purpose, the procedure was as follows.
MEP growth medium according to DSMZ:
30 g of malt extract (Becton, Dickinson and Company, Sparks, USA) 3 g of soya peptone (Becton, Dickinson and Company, Sparks, USA) make up to 1 liter, set pH 5.6
The growth test was effected as follows: an agar plate on which the Trichophyton rubrum culture had grown was rinsed with 5 ml of MEP medium.
1.5 ml reaction vessels were each filled with 1 ml of MEP medium and inoculated with 10 μl of the T. rubrum suspension. The concentration of the peptide solution in water or ZPT solution (zinc pyrithione, >96%, Sigma Aldrich) dissolved in DMSO was 2% (w/w).
(§2) The following growth was compared: • T. rubrum suspension and addition of P18 peptide with a final concentration in the 1.5 ml reaction vessel of 50 ppm after 5 minutes, 10 minutes, 20 minutes and 60 minutes • T. rubrum suspension and addition of P18 peptide with a final concentration in the 1.5 ml reaction vessel of 100 ppm after 5 minutes, 10 minutes, 20 minutes and 60 minutes • T. rubrum suspension and addition of P18 peptide with a final concentration in the 1.5 ml reaction vessel of 200 ppm after 5 minutes, 10 minutes, 20 minutes and 60 minutes • T. rubrum suspension and addition of P18 peptide with a final concentration in the 1.5 ml reaction vessel of 500 ppm after 5 minutes, 10 minutes, 20 minutes and 60 minutes • T. rubrum suspension and addition of P18 peptide with a final concentration in the 1.5 ml reaction vessel of 1000 ppm after 5 minutes, 10 minutes, 20 minutes and 60 minutes • T. rubrum suspension and addition of ZPT with a final concentration in the 1.5 ml reaction vessel of 50 ppm after 5 minutes, 10 minutes, 20 minutes and 60 minutes • T. rubrum suspension and addition of ZPT with a final concentration in the 1.5 ml reaction vessel of 100 ppm after 5 minutes, 10 minutes, 20 minutes and 60 minutes • T. rubrum suspension and addition of ZPT with a final concentration in the 1.5 ml reaction vessel of 200 ppm after 5 minutes, 10 minutes, 20 minutes and 60 minutes • T. rubrum suspension and addition of ZPT with a final concentration in the 1.5 ml reaction vessel of 500 ppm after 5 minutes, 10 minutes, 20 minutes and 60 minutes • T. rubrum suspension and addition of ZPT with a final concentration in the 1.5 ml reaction vessel of 1000 ppm after 5 minutes, 10 minutes, 20 minutes and 60 minutes
(§3) The 1.5 ml reaction vessels were incubated at room temperature.
After the incubation times specified, the colony forming units (CFU) were determined by streaking 1 μl of each of the suspensions diluted with 20 μl of MEP medium and, after incubation for 2 days, counting the colonies.

[2] = system: Staphylococcus epidermidis (DSM 1798); experiment: Short-term effect (CFU); format: cell-based; conditions: for Inhibition in words: up to 60 minutes
Experimental: as §1
TSBY growth medium: Ready-made TSB medium (Becton, Dickinson and Company, Sparks, USA); 17 g of pancreatin-degraded casein 3 g of pancreatin-degraded soya 2.5 g of dextrose 5 g of sodium chloride 2.5 g of dipotassium phosphate 3 g of yeast extract (Becton, Dickinson and Company, Sparks, USA) make up to 1 liter, set pH 7
The growth test was effected as follows: 5 ml of TSBY medium were inoculated with S. epidermidis and incubated at 37° C. and 200 rpm overnight.
1.5 ml reaction vessels were each filled with 1 ml of TSBY medium and inoculated with S. epidermidis suspension from the overnight culture. The S. epidermidis suspension was adjusted at the start of the experiment to an optical density, measured at 600 nm, of 0.1. The concentration of the peptide solution in water or ZPT solution (zinc pyrithione, >96%, Sigma Aldrich) dissolved in DMSO was 2% (w/w).
as §2, with “S. epidermidis” for “T. rubrum”
as §3
After the incubation times specified, the colony forming units (CFU) were determined by streaking 1 μl of each of the suspensions diluted in 20 μl of TSBY medium and, after incubation for 2 days, counting the colonies.

## H-KWKLFKKIPKFLHLAKKF-NH2 [P18, H-KWKLFKKIPKFLHLAKKF-NH2]
[1]; 50 ppm, 5 minutes
  Colony forming units after the incubation time specified: 59 CFU
[1]; 50 ppm, 10 minutes
  Colony forming units after the incubation time specified: 55 CFU
[1]; 50 ppm, 20 minutes
  Colony forming units after the incubation time specified: 35 CFU
[1]; 50 ppm, 60 minutes
  Colony forming units after the incubation time specified: 23 CFU
[1]; 100 ppm, 5 minutes
  Colony forming units after the incubation time specified: 41 CFU
[1]; 100 ppm, 10 minutes
  Colony forming units after the incubation time specified: 22 CFU
[1]; 100 ppm, 20 minutes
  Colony forming units after the incubation time specified: 36 CFU
[1]; 100 ppm, 60 minutes
  Colony forming units after the incubation time specified: 18 CFU
[1]; 200 ppm, 5 minutes
  Colony forming units after the incubation time specified: 32 CFU
[1]; 200 ppm, 10 minutes
  Colony forming units after the incubation time specified: 39 CFU
[1]; 200 ppm, 20 minutes
  Colony forming units after the incubation time specified: 24 CFU
[1]; 200 ppm, 60 minutes
  Colony forming units after the incubation time specified: 5 CFU
[1]; 500 ppm, 5 minutes
  Colony forming units after the incubation time specified: 30 CFU
[1]; 500 ppm, 10 minutes
  Colony forming units after the incubation time specified: 18 CFU
[1]; 500 ppm, 20 minutes
  Colony forming units after the incubation time specified: 9 CFU
[1]; 500 ppm, 60 minutes
  Colony forming units after the incubation time specified: 1 CFU
[1]; 1000 ppm, 5 minutes
  Colony forming units after the incubation time specified: 17 CFU
[1]; 1000 ppm, 10 minutes
  Colony forming units after the incubation time specified: 18 CFU
[1]; 1000 ppm, 20 minutes
  Colony forming units after the incubation time specified: 10 CFU
[1]; 1000 ppm, 60 minutes
  Colony forming units after the incubation time specified: 2 CFU
[1]; cell count 10 times higher (data not shown)
  Factor of reduction of the living cell count: ≤ 2
[1]; concentration range studied (50-1000 ppm), first 60 minutes
  Factor of reduction of the living cell count: ≤ 20
[2]; 50 ppm, 5 minutes
  Colony forming units after the incubation time specified: 221 ± 5 CFU
[2]; 50 ppm, 10 minutes
  Colony forming units after the incubation time specified: 19 ± 3 CFU
[2]; 50 ppm, 20 minutes
  Colony forming units after the incubation time specified: 4.75 ± 0.4 CFU
[2]; 50 ppm, 60 minutes
  Colony forming units after the incubation time specified: 0.75 ± 0.4 CFU
[2]; 100 ppm, 5 minutes
  Colony forming units after the incubation time specified: 171 ± 219 CFU
[2]; 100 ppm, 10 minutes
  Colony forming units after the incubation time specified: 6.5 ± 4.2 CFU
[2]; 100 ppm, 20 minutes
  Colony forming units after the incubation time specified: 0.5 ± 0 CFU
[2]; 100 ppm, 60 minutes
  Colony forming units after the incubation time specified: 0 ± 0 CFU
[2]; 200 ppm, 5 minutes
  Colony forming units after the incubation time specified: 14 ± 18 CFU
[2]; 200 ppm, 10 minutes
  Colony forming units after the incubation time specified: 5.75 ± 4.6 CFU
[2]; 200 ppm, 20 minutes
  Colony forming units after the incubation time specified: 0.25 ± 0.4 CFU
[2]; 200 ppm, 60 minutes
  Colony forming units after the incubation time specified: 0 ± 0 CFU
[2]; 500 ppm, 5 minutes
  Colony forming units after the incubation time specified: 19 ± 22 CFU
[2]; 500 ppm, 10 minutes
  Colony forming units after the incubation time specified: 0.25 ± 0.4 CFU
[2]; 500 ppm, 20 minutes
  Colony forming units after the incubation time specified: 0.75 ± 1.1 CFU
[2]; 500 ppm, 60 minutes
  Colony forming units after the incubation time specified: 0 ± 0 CFU
[2]; 1000 ppm, 5 minutes
  Colony forming units after the incubation time specified: 1.25 ± 0.4 CFU
[2]; 1000 ppm, 10 minutes
  Colony forming units after the incubation time specified: 0 ± 0 CFU
[2]; 1000 ppm, 20 minutes
  Colony forming units after the incubation time specified: 0 ± 0 CFU
[2]; 1000 ppm, 60 minutes
  Colony forming units after the incubation time specified: 0 ± 0 CFU

## zinc pyrithione [ZPT]
[1]; 50-1000 ppm, up to 60 minutes
  Inhibition in words: no significant inhibition
[1]; 50 ppm, 5 minutes
  Colony forming units after the incubation time specified: 44 CFU
[1]; 50 ppm, 10 minutes
  Colony forming units after the incubation time specified: 51 CFU
[1]; 50 ppm, 20 minutes
  Colony forming units after the incubation time specified: 51 CFU
[1]; 50 ppm, 60 minutes
  Colony forming units after the incubation time specified: 55 CFU
[1]; 100 ppm, 5 minutes
  Colony forming units after the incubation time specified: 38 CFU
[1]; 100 ppm, 10 minutes
  Colony forming units after the incubation time specified: 54 CFU
[1]; 100 ppm, 20 minutes
  Colony forming units after the incubation time specified: 50 CFU
[1]; 100 ppm, 60 minutes
  Colony forming units after the incubation time specified: 48 CFU
[1]; 200 ppm, 5 minutes
  Colony forming units after the incubation time specified: 44 CFU
[1]; 200 ppm, 10 minutes
  Colony forming units after the incubation time specified: 51 CFU
[1]; 200 ppm, 20 minutes
  Colony forming units after the incubation time specified: 56 CFU
[1]; 200 ppm, 60 minutes
  Colony forming units after the incubation time specified: 49 CFU
[1]; 500 ppm, 5 minutes
  Colony forming units after the incubation time specified: 43 CFU
[1]; 500 ppm, 10 minutes
  Colony forming units after the incubation time specified: 47 CFU
[1]; 500 ppm, 20 minutes
  Colony forming units after the incubation time specified: 51 CFU
[1]; 500 ppm, 60 minutes
  Colony forming units after the incubation time specified: 44 CFU
[1]; 1000 ppm, 5 minutes
  Colony forming units after the incubation time specified: 52 CFU
[1]; 1000 ppm, 10 minutes
  Colony forming units after the incubation time specified: 62 CFU
[1]; 1000 ppm, 20 minutes
  Colony forming units after the incubation time specified: 47 CFU
[1]; 1000 ppm, 60 minutes
  Colony forming units after the incubation time specified: 48 CFU
[2]; 50 ppm and 100 ppm
  Inhibition in words: low inhibition
[2]; 50 ppm, 5 minutes
  Colony forming units after the incubation time specified: 2000 ± 0 CFU
[2]; 50 ppm, 10 minutes
  Colony forming units after the incubation time specified: 2000 ± 0 CFU
[2]; 50 ppm, 20 minutes
  Colony forming units after the incubation time specified: 1033 ± 1368 CFU
[2]; 50 ppm, 60 minutes
  Colony forming units after the incubation time specified: 522 ± 721 CFU
[2]; 100 ppm, 5 minutes
  Colony forming units after the incubation time specified: 2000 ± 0 CFU
[2]; 100 ppm, 10 minutes
  Colony forming units after the incubation time specified: 2000 ± 0 CFU
[2]; 100 ppm, 20 minutes
  Colony forming units after the incubation time specified: 1200 ± 1131 CFU
[2]; 100 ppm, 60 minutes
  Colony forming units after the incubation time specified: 707 ± 698 CFU
[2]; 200 ppm, 5 minutes
  Colony forming units after the incubation time specified: 2000 ± 0 CFU
[2]; 200 ppm, 10 minutes
  Colony forming units after the incubation time specified: 2000 ± 0 CFU
[2]; 200 ppm, 20 minutes
  Colony forming units after the incubation time specified: 2000 ± 0 CFU
[2]; 200 ppm, 60 minutes
  Colony forming units after the incubation time specified: 2000 ± 0 CFU
[2]; 500 ppm, 5 minutes
  Colony forming units after the incubation time specified: 2000 ± 0 CFU
[2]; 500 ppm, 10 minutes
  Colony forming units after the incubation time specified: 2000 ± 0 CFU
[2]; 500 ppm, 20 minutes
  Colony forming units after the incubation time specified: 2000 ± 0 CFU
[2]; 500 ppm, 60 minutes
  Colony forming units after the incubation time specified: 2000 ± 0 CFU
[2]; 1000 ppm, 5 minutes
  Colony forming units after the incubation time specified: 2000 ± 0 CFU
[2]; 1000 ppm, 10 minutes
  Colony forming units after the incubation time specified: 2000 ± 0 CFU
[2]; 1000 ppm, 20 minutes
  Colony forming units after the incubation time specified: 2000 ± 0 CFU
[2]; 1000 ppm, 60 minutes
  Colony forming units after the incubation time specified: 2000 ± 0 CFU
[2]; higher concentrations (200-1000 ppm)
  Inhibition in words: no significant inhibition
